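These data come from cells grown in 96-well plates and exposed to compound for 48 hours at five concentrations. The concentration for full growth arrest is given as TGI.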
Experiments:
Assay in all cases: NCI-60 cell line screen, 48 h
[1] = test system: CAKI-1 renal
[2] = test system: NCI-H460 lung
[3] = test system: LOX IMVI melanoma
[4] = test system: NCI-H226 lung
[5] = test system: ACHN renal
[6] = test system: COLO 205 colon
[7] = test system: HOP-92 NSCLC
[8] = test system: SK-OV-3 ovarian
[9] = test system: PC-3 prostate
[10] = test system: HCT-15 colon
[11] = test system: OVCAR-4 ovarian
[12] = test system: OVCAR-5 ovarian
[13] = test system: M14 melanoma
[14] = test system: HOP-62 NSCLC
[15] = test system: UO-31 renal
[16] = test system: EKVX NSCLC
[17] = test system: IGROV1 ovarian
[18] = test system: A549 NSCLC
[19] = test system: HL-60(TB) leukemia

| Structure (SMILES) | TGI [1] [µM] | TGI [2] [µM] | TGI [3] [µM] | TGI [4] [µM] | TGI [5] [µM] | TGI [6] [µM] | TGI [7] [µM] | TGI [8] [µM] | TGI [9] [µM] | TGI [10] [µM] | TGI [11] [µM] | TGI [12] [µM] | TGI [13] [µM] | TGI [14] [µM] | TGI [15] [µM] | TGI [16] [µM] | TGI [17] [µM] | TGI [18] [µM] | TGI [19] [µM] |
| --- | --- | --- | --- | --- | --- | --- | --- | --- | --- | --- | --- | --- | --- | --- | --- | --- | --- | --- | --- |
| CC(Cc1ccccc1)Nc1ncnc2c1ncn2C1OC(CO)CC1O (stereo not drawn) | > 100 | > 100 | > 100 | > 100 | > 100 | > 100 | > 100 | 13.7 | > 100 | > 100 | > 100 | > 100 | > 100 | > 100 | > 100 | > 100 | > 100 | > 100 | – |
| Cc1cc(-c2cccc3ccccc23)c(C#N)c(=S)n1C1OC(CO)C(O)C(O)C1O (stereo not drawn) | > 100 | > 100 | > 100 | > 100 | > 100 | > 100 | – | > 100 | > 100 | > 100 | > 100 | > 100 | > 100 | > 100 | – | > 100 | > 100 | > 100 | > 100 |
| COc1ccc([C@H]2CC(=O)C[C@H](c3ccc(OC)cc3)C23C(=O)c2ccccc2C3=O)cc1 | > 100 | > 100 | > 100 | > 100 | > 100 | 8.32 | > 100 | > 100 | > 100 | > 100 | > 100 | > 100 | > 100 | > 100 | > 100 | > 100 | > 100 | > 100 | – |
| CN1CCN(C(=S)N(C(=O)c2ccc(Cl)cc2)c2ccccc2)CC1 | – | > 100 | > 100 | > 100 | > 100 | > 100 | > 100 | – | – | > 100 | > 100 | > 100 | > 100 | – | > 100 | – | > 100 | > 100 | > 100 |
| O=C1N=C(SC(SC2=NC(=O)C3(NN2)c2ccccc2-c2ccccc23)=C(SC2=NC(=O)C3(NN2)c2ccccc2-c2ccccc23)SC2=NC(=O)C3(NN2)c2ccccc2-c2ccccc23)NNC12c1ccccc1-c1ccccc12 | > 10 | > 10 | > 10 | > 10 | 9.09 | > 10 | > 10 | > 10 | > 10 | > 10 | > 10 | – | > 10 | > 10 | > 10 | > 10 | > 10 | > 10 | – |
| O=C(O)Cc1c(-c2ccc([N+](=O)[O-])cc2)c(=O)oc2cc(O)ccc12 | – | > 100 | > 100 | > 100 | 91.8 | > 100 | – | 90 | 94.5 | 75.7 | – | 98.9 | > 100 | – | 83.6 | 83 | > 100 | > 100 | 39.4 |
| NCCCOc1ccc([N+](=O)[O-])cc1Cl | > 100 | > 100 | – | > 100 | > 100 | > 100 | > 100 | – | – | > 100 | > 100 | > 100 | > 100 | > 100 | > 100 | – | > 100 | > 100 | > 100 |
| O=c1cc(-c2ccccc2)[nH]c2ccc(N3CCOCC3)cc12 | > 89.2 | > 100 | > 100 | 0.253 | > 91 | – | 44.1 | 22.4 | > 100 | > 100 | > 100 | > 100 | > 79.2 | 28.2 | > 100 | > 100 | > 100 | – | – |
| S=c1nc(N2CCCCC2)c2cn[nH]c2[nH]1 | > 100 | > 100 | > 100 | > 100 | > 100 | > 100 | – | – | > 100 | > 100 | > 100 | > 100 | > 100 | > 100 | 77.9 | > 100 | 56.5 | > 100 | 69.9 |
| O=c1[nH]nc(-c2ccccc2)n1Nc1ccccc1 | > 100 | > 100 | > 100 | > 100 | > 100 | > 100 | > 100 | > 100 | – | > 100 | > 100 | > 100 | > 100 | – | > 100 | > 100 | > 100 | > 100 | > 100 |
| O=C(O)c1cc(CC2Cc3cc4c(cc3C2=O)CCC4)cc2c1CCC2 (stereo not drawn) | > 100 | > 100 | > 100 | > 100 | > 100 | > 100 | – | > 100 | > 100 | > 100 | > 100 | > 100 | > 100 | > 100 | > 100 | > 100 | > 100 | > 100 | > 100 |
| C=C[C@@]1(C)CC[C@@H]2[C@@]3(C1)O[C@H]3CC1[C@](C)(C(=O)OC)CCC[C@@]12C (stereo partly drawn) | > 100 | 31.3 | – | – | 29.5 | 31.8 | 33.8 | 69.6 | > 100 | 35.8 | > 100 | 32.3 | 39.7 | 40.6 | 31.8 | 38.6 | 58.4 | 54.7 | – |
| Cc1ccc(Cc2n[nH]c(=O)n2Nc2ccccc2)cc1 | > 100 | > 100 | > 100 | > 100 | > 100 | > 100 | > 100 | > 100 | – | > 100 | > 100 | > 100 | – | > 100 | > 100 | > 100 | > 100 | > 100 | > 100 |
| OCCOCCN1CCN(CCCN2c3ccccc3Sc3ccc(C(F)(F)F)cc32)CC1 | 30.5 | 22.7 | 15.1 | 37.2 | 31.8 | 3.57 | 27.8 | 33.7 | 29.6 | 38.3 | 30.2 | 27.3 | 5.39 | 33.2 | 20.6 | 29.2 | 22.2 | 27.1 | – |
| CN(C)c1ccc(/C=C/C(=O)CC(=O)/C=C/c2ccc(N(C)C)cc2)cc1 | > 100 | > 100 | > 100 | > 100 | > 100 | > 100 | – | > 100 | > 100 | > 100 | > 100 | > 100 | > 100 | > 100 | > 100 | > 100 | > 100 | > 100 | > 100 |
| O=C1Nc2ccccc2C1=Nc1cccc2ncccc12 | > 100 | > 100 | > 100 | > 100 | > 100 | > 100 | > 100 | 99.7 | > 100 | > 100 | > 100 | > 100 | > 100 | > 100 | > 100 | 85.6 | > 100 | > 100 | – |
| Cc1ccc(S(=O)(=O)N2CCC(=O)c3cc(Br)ccc32)cc1 | > 100 | > 55.4 | > 64.6 | > 100 | > 100 | 31.3 | 98.9 | 63.2 | 75.4 | > 100 | > 73.9 | > 100 | > 67 | 59.7 | > 100 | 96.3 | > 100 | 32.1 | – |
| CCN(C(=O)N[C@@H](Cc1ccccc1)C(=O)N[C@@H](CC(C)C)C(=O)OC)c1ccccc1 | 84.7 | 24.9 | 30.1 | 47.6 | 51.3 | 32.2 | 59.5 | > 100 | 97.4 | 34.5 | > 100 | 66.6 | 21.9 | 70.6 | 33.3 | 58.8 | 42.2 | > 100 | – |
| N#C[C@@H](c1nc2ccccc2s1)c1ncccc1[N+](=O)[O-] | > 100 | 14.2 | 13.9 | 87.8 | > 31.6 | 8.8 | 6.85 | > 61.1 | 18.1 | > 31.6 | > 100 | > 31.6 | > 31.6 | > 57.6 | 25.6 | > 31.6 | – | 18.1 | – |
| N#CC(C#N)=C1c2ccccc2C(=NN)c2ccccc21 | > 100 | – | – | > 100 | > 63.9 | > 100 | > 100 | > 100 | > 100 | > 100 | – | > 100 | > 100 | > 100 | > 100 | – | > 100 | – | – |
| BrC1=CCC23CC=C(Br)[C@H]4CC2(COC3)C[C@@H]1O4 (stereo partly drawn) | – | > 100 | > 100 | > 100 | > 100 | > 100 | – | – | – | > 100 | > 100 | 86.2 | > 100 | > 100 | 82.4 | > 100 | > 100 | > 100 | 38.1 |
| NC(=O)Nc1ccc(S(=O)(=O)Nc2ccc(S(N)(=O)=O)cc2)cc1 | > 100 | > 100 | > 100 | > 100 | > 100 | > 100 | > 100 | – | > 100 | > 100 | > 100 | > 100 | > 100 | > 100 | > 100 | > 100 | > 100 | > 100 | – |
| CC(=O)OC/C=C/[C@H](O[Si](C)(C)C(C)(C)C)[C@@H](O)/C=C/COC(C)=O | > 100 | > 100 | > 100 | > 100 | > 100 | > 100 | > 100 | > 100 | > 100 | > 100 | > 100 | > 100 | > 100 | > 100 | > 100 | > 100 | > 100 | > 100 | – |
| Cc1ccc2nc3c(=O)[nH]c(=O)nc-3n(C)c2c1C | > 100 | > 100 | > 100 | > 100 | > 100 | > 100 | – | > 100 | > 100 | > 100 | > 100 | > 100 | > 100 | > 100 | > 100 | > 100 | > 100 | > 100 | > 100 |
| CN1CN(c2ccccc2)C2(CCN(Cc3csc4ccccc34)CC2)C1=O | > 100 | – | 25.2 | > 100 | 92.4 | 30.2 | – | > 100 | 43 | > 100 | – | 25.1 | 39.8 | 87.5 | 12.3 | 41.8 | 44.7 | 74 | 32.8 |
| CCOC(=O)c1nnsc1NC(=O)Nc1ccc(Cc2ccc(NC(=O)Nc3snnc3C(=O)OCC)cc2)cc1 | > 100 | > 100 | – | > 100 | > 100 | > 100 | – | 54.8 | > 100 | > 100 | > 100 | > 100 | > 100 | > 100 | > 100 | > 100 | > 100 | > 100 | – |
| COC(=O)/C=C\COCC1C2CCC(=O)C21 (stereo not drawn) | 1.29 | 24.3 | > 25 | > 25 | > 25 | > 25 | 10.6 | > 25 | > 25 | > 25 | > 25 | > 25 | > 25 | > 25 | > 25 | > 25 | > 25 | > 25 | – |
